How the values were obtained:
[1] = target: 72 kDa type IV collagenase (Homo sapiens, UniProt P08253); assay: Inhibition of full length MMP2 using Mca-Pro-Leu-Gly-Leu-Dpa-Ala-Arg-NH2 as substrate preincubated for 1 hr prior substrate addition measured after 3 hrs by spectrofluorimetry
[2] = target: Matrix metalloproteinase-9 (Homo sapiens, UniProt P14780); assay: Inhibition of MMP9 catalytic domain using Mca-Pro-Leu-Gly-Leu-Dpa-Ala-Arg-NH2 as substrate preincubated for 1 hr prior substrate addition measured after 3 hrs by spectrofluorimetry
Sequence of Matrix metalloproteinase-9 (P14780 whole entry, the tested form may be a part): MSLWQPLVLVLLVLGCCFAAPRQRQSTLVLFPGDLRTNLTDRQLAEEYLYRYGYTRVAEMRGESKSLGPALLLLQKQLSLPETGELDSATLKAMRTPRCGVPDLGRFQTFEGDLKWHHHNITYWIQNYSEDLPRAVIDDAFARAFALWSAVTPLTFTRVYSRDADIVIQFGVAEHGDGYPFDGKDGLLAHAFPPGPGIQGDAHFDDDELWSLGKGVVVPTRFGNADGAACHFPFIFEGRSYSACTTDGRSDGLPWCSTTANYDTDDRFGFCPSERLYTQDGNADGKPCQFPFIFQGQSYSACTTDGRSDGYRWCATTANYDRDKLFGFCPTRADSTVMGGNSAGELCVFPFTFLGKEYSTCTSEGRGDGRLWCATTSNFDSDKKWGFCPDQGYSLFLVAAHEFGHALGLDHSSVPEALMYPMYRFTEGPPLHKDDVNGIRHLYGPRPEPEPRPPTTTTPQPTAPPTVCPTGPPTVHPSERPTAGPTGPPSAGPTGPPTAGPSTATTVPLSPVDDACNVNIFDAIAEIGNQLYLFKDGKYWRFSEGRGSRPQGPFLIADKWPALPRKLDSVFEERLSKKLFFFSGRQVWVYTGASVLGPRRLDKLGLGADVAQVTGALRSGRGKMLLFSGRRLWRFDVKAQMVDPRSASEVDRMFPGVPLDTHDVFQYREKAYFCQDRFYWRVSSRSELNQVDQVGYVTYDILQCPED

[3] = target: T1, Interstitial collagenase (Homo sapiens, UniProt P03956); assay: Inhibition of MMP1 catalytic domain using Mca-Pro-Leu-Gly-Leu-Dpa-Ala-Arg-NH2 as substrate preincubated for 1 hr prior substrate addition measured after 3 hrs by spectrofluorimetry
T1 sequence (P03956 whole entry): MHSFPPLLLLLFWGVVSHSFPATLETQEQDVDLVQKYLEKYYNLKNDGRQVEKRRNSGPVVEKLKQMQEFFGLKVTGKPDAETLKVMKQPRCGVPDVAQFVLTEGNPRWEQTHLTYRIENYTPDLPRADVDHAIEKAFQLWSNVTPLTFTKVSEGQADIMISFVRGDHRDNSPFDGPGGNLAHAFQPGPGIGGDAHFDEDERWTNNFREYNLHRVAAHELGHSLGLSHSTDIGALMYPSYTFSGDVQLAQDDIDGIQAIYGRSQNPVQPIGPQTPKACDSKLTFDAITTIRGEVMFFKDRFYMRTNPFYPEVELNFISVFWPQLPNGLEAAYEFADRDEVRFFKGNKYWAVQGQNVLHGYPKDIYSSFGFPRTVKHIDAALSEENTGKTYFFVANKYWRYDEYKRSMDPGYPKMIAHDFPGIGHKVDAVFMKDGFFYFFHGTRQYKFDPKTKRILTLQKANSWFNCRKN

[4] = target: Stromelysin-1 (Homo sapiens, UniProt P08254); assay: Inhibition of MMP3 catalytic domain using Mca-Pro-Leu-Gly-Leu-Dpa-Ala-Arg-NH2 as substrate preincubated for 1 hr prior substrate addition measured after 3 hrs by spectrofluorimetry
Sequence of Stromelysin-1 (P08254 whole entry, the tested form may be a part): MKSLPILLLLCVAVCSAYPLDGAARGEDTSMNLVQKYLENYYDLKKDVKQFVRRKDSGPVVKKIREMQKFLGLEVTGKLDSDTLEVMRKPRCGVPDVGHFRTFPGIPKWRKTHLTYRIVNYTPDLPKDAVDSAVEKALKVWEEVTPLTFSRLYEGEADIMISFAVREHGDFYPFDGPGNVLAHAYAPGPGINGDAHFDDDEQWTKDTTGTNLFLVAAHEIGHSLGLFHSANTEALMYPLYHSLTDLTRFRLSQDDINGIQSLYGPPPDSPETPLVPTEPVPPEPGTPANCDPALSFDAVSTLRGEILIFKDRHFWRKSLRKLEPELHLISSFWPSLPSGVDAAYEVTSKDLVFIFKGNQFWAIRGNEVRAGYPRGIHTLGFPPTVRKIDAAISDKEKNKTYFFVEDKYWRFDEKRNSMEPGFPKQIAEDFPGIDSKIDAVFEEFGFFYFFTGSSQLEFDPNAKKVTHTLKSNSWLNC

[5] = target: Neutrophil collagenase (Homo sapiens, UniProt P22894); assay: Inhibition of MMP8 catalytic domain using Mca-Pro-Leu-Gly-Leu-Dpa-Ala-Arg-NH2 as substrate preincubated for 1 hr prior substrate addition measured after 3 hrs by spectrofluorimetry
Sequence of Neutrophil collagenase (P22894 whole entry, the tested form may be a part): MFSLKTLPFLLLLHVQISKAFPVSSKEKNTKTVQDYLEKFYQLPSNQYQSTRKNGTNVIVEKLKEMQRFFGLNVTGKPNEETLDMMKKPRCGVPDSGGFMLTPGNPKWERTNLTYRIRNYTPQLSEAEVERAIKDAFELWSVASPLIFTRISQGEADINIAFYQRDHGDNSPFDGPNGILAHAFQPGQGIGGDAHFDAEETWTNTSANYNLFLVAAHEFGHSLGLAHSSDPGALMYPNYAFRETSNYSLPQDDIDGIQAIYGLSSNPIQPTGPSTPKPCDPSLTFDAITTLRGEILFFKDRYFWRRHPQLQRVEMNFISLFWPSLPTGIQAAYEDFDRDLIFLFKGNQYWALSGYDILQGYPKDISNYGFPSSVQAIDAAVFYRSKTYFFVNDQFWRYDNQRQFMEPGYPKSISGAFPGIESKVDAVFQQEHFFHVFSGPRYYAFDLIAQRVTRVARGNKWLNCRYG

[6] = target: Macrophage metalloelastase (Homo sapiens, UniProt P39900); assay: Inhibition of MMP12 catalytic domain using Mca-Pro-Leu-Gly-Leu-Dpa-Ala-Arg-NH2 as substrate preincubated for 1 hr prior substrate addition measured after 3 hrs by spectrofluorimetry
Sequence of Macrophage metalloelastase (P39900 whole entry, the tested form may be a part): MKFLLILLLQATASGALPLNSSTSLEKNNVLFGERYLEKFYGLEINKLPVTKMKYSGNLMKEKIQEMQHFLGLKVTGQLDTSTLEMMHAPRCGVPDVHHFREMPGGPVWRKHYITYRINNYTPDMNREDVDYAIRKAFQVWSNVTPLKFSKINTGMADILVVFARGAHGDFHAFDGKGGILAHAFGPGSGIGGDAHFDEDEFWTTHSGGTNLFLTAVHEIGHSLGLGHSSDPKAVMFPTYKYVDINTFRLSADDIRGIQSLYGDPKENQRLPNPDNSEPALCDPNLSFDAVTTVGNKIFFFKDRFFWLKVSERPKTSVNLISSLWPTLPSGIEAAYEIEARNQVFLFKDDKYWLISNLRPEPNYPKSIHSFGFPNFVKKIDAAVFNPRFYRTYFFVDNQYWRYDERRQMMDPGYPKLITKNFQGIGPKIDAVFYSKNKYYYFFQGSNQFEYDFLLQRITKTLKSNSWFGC

[7] = target: Matrix metalloproteinase-14 (Homo sapiens, UniProt P50281); assay: Inhibition of MMP14 catalytic domain using Mca-Pro-Leu-Gly-Leu-Dpa-Ala-Arg-NH2 as substrate preincubated for 1 hr prior substrate addition measured after 3 hrs by spectrofluorimetry

Sequence of 72 kDa type IV collagenase (P08253 whole entry, the tested form may be a part): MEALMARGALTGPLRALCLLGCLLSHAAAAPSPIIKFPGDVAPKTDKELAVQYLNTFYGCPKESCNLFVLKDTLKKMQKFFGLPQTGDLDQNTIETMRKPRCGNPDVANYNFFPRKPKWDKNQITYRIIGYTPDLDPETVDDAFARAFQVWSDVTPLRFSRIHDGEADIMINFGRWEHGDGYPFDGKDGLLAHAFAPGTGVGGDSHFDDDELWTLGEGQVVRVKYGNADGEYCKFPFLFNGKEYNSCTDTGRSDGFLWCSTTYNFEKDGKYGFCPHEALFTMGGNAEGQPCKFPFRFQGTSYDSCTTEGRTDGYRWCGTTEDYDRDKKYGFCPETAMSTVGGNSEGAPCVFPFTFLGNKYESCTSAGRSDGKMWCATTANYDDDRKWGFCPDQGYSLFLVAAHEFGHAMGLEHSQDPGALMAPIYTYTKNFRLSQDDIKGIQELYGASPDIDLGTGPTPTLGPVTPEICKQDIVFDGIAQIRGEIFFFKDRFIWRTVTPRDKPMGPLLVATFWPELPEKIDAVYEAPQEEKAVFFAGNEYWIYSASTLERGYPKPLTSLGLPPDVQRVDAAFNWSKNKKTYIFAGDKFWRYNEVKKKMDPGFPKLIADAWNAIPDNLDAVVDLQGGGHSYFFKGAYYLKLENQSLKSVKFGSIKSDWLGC

Structure (SMILES) | IC50 [1] [nM] | IC50 [2] [nM] | other results
CCCCCc1ccc(C(=O)Nc2ccc(S(=O)(=O)N(CCN3CCOCC3)[C@@H](C(=O)NO)C(C)C)cc2)cc1 | < 0.1 | – | –
O=C(NO)[C@H]1CCC(=O)N1Cc1ccc(-c2ccccc2)cc1 | 3000 | 30000 | –
NC(=O)[C@H]1CCC(=O)N1Cc1ccccc1Cl | > 500000 | – | –
NC(=O)[C@H]1CCC(=O)N1Cc1ccc(Cl)cc1 | > 500000 | – | –
O=C(NO)[C@@H]1CCC(=O)N1Cc1ccc(-c2ccccc2)cc1 | 9000 | 144000 | –
O=C(O)[C@@H]1CCC(=O)N1Cc1ccc(-c2ccccc2)cc1 | 340000 | – | –
NC(=O)[C@@H]1CCC(=O)N1Cc1ccc(-c2ccccc2)cc1 | > 500000 | – | –
O=C(NO)[C@@H]1CCC(=O)N1Cc1ccccc1Cl | > 500000 | – | –
NC(=O)[C@@H]1CCC(=O)N1Cc1ccccc1Cl | > 500000 | – | –
NC(=O)[C@@H]1CCC(=O)N1Cc1ccc(Cl)cc1 | > 500000 | – | –
O=C(NO)[C@@H]1CSCN1Cc1ccc(-c2ccccc2)cc1 | 330000 | – | –
O=C(NO)[C@@H]1CCC(=O)N1S(=O)(=O)c1ccc(-c2ccccc2)cc1 | 1700 | 1900 | –
O=C(NO)[C@@H]1CCCN1S(=O)(=O)c1ccc(-c2ccccc2)cc1 | 4000 | 76000 | –
O=C(NO)[C@@H]1CSCN1S(=O)(=O)c1ccc(-c2ccccc2)cc1 | 200 | 230 | –
O=C(NO)[C@@H]1CSCN1S(=O)(=O)c1cccc2cccnc12 | 710 | 560 | –
COc1ccc(Oc2ccc(S(=O)(=O)N3CSC[C@H]3C(=O)NO)cc2)cc1 | 9 | 2 | –
O=C(NO)[C@@H]1CSCN1S(=O)(=O)c1ccc(Oc2ccc(Cl)cc2)cc1 | 13 | 16 | IC50 [3]: 1000 nM; IC50 [4]: 160 nM
O=C(NO)[C@@H]1C[S+]([O-])CN1S(=O)(=O)c1ccc(-c2ccccc2)cc1 (some centres not stated) | 9 | 600 | IC50 [3]: 4000 nM; IC50 [4]: 2000 nM; IC50 [5]: 400 nM; IC50 [6]: 2500 nM; IC50 [7]: 160 nM
O=C(O)[C@@H]1CCC(=O)N1Cc1ccccc1Cl | 315000 | – | –

Now from value to compound, other results behind:

IC50 [1] [nM] | IC50 [2] [nM] | Structure (SMILES) | other results
290000 | – | O=C(O)[C@H]1CCC(=O)N1Cc1ccc(-c2ccccc2)cc1 | –
> 500000 | – | NC(=O)[C@H]1CCC(=O)N1Cc1ccc(-c2ccccc2)cc1 | –
> 500000 | > 500000 | O=C(NO)[C@H]1CCC(=O)N1Cc1ccccc1Cl | –
> 500000 | – | O=C(O)[C@H]1CCC(=O)N1Cc1ccccc1Cl | –
400000 | 430000 | O=C(NO)[C@H]1CCC(=O)N1Cc1ccc(Cl)cc1 | –
> 500000 | – | O=C(O)[C@H]1CCC(=O)N1Cc1ccc(Cl)cc1 | –
> 500000 | – | O=C(NO)[C@@H]1CCC(=O)N1Cc1ccc(Cl)cc1 | –
383000 | – | O=C(O)[C@@H]1CCC(=O)N1Cc1ccc(Cl)cc1 | –
> 500000 | – | O=C(NO)[C@@H]1CCCN1Cc1ccc(-c2ccccc2)cc1 | –
> 500000 | – | O=C(NO)[C@@H]1C[C@@H](O)CN1Cc1ccc(-c2ccccc2)cc1 | –
6800 | 47000 | O=C(NO)[C@@H]1CSC(=O)N1Cc1ccc(-c2ccccc2)cc1 | –
31000 | > 50000 | O=C(NO)[C@@H]1CSCN1S(=O)(=O)c1ccc2ccccc2c1 | –
10 | 5 | O=C(NO)[C@@H]1CSCN1S(=O)(=O)c1ccc(Oc2ccc(F)cc2)cc1 | IC50 [3]: > 50000 nM; IC50 [4]: 700 nM
53 | 480 | O=C(NO)[C@@H]1CS(=O)(=O)CN1S(=O)(=O)c1ccc(-c2ccccc2)cc1 | IC50 [3]: 2500 nM; IC50 [4]: 4000 nM; IC50 [5]: 100 nM; IC50 [6]: 500 nM; IC50 [7]: 3800 nM
0.8 | 0.5 | O=C(NO)[C@@H]1CS(=O)(=O)CN1S(=O)(=O)c1ccc(Oc2ccc(Cl)cc2)cc1 | IC50 [5]: 4 nM; IC50 [6]: 19 nM; IC50 [7]: 5 nM

Source: ChEMBL document CHEMBL1955780, “In silico scaffold evaluation and solid phase approach to identify new gelatinase inhibitors” (Bioorg Med Chem, 2012)
